In series [1] the test system is neuropathic guinea-pigs. Description: Reversal of mechanical hyperalgesia in a model of neuropathic pain (partial sciatic nerve ligation, paw withdrawal threshold). Format: in vivo, guinea pig. The text has this: Neuropathic hyperalgesia is induced by partial ligation of the left sciatic nerve (Seltzer et al, Pain 43, 1990, 205-218; Campbell et al, Neuroscience 87, 1998, 527-532). Briefly, male Dunkin Hartley guinea pigs (200-250 g) are anaesthetized with isoflurane in N2O:O2, the left sciatic nerve exposed at mid thigh level through a small incision and ⅓ to ½ of the nerve thickness tightly ligated within a 7.0 silk suture. The wound is closed and the animals are allowed to recover from surgery for 12 to 15 days.
Mechanical hyperalgesia is assessed by measuring paw withdrawal thresholds to an increasing pressure stimulus placed onto the dorsal surface of the paw using an analgesymeter (Ugo-Basile, Milan) with a cut-off of 250 g. Withdrawal are measured on both the ipsilateral (ligated) and contralateral (unligated) paw prior to and then up to 6 h following drug or vehicle administration. Reversal of hyperalgesia at each time point is calculated according to the following formula, which uses the contralateral paw as a reference: […]
(§1) The enantiomers of the compound of formula I are administered daily in 0.5% methyl-cellulose/water, with Trileptal™ included in each experiment as positive control. Each experiment uses 6 randomly assigned animals per treatment group. Statistical analysis is carried out on withdrawal threshold data comparing test to vehicle.

Series [2] deals with neuropathic guinea-pigs. As to the kind of experiment: Side-effects observed after administration in the neuropathic pain model. Format: in vivo, guinea pig. On the procedure:
as §1
The R-enantiomer of the compound of formula I produces a dose-related reversal of mechanical hyperalgesia in neuropathic guinea-pigs. A maximum reversal of 73% is observed 1 h following administration with a calculated D50 value of 47 mg/kg.

[3] abbreviates: 1 h following administration, neuropathic guinea-pigs.
Where [4] appears, read: highest dose tested (100 mg/kg).

For the compound `NC(=O)N1c2ccccc2C[C@@H](O)c2ccccc21` (single isomer, unassigned) [R-enantiomer, R(−)-10,11-dihydro-10-hydroxy-5H-dibenzo[b,f]azepine-5-carboxamide], in the series on neuropathic guinea-pigs [1] (setting [3]), the “calculated D50 value (reversal of mechanical hyperalgesia)” value is given as 47 mg/kg and the “maximum reversal of mechanical hyperalgesia” value is given as 73%. Moreover, the “duration of anti-hyperalgesic effect” value with neuropathic guinea-pigs [1] (6 h following administration) is “significant activity”. The side-effects entry with neuropathic guinea-pigs [2] (highest dose) is “comparatively mild side-effect”.
Take `NC(=O)N1c2ccccc2C[C@H](O)c2ccccc21` (single isomer, unassigned) [S-enantiomer, S(+)-10,11-dihydro-10-hydroxy-5H-dibenzo[b,f]azepine-5-carboxamide]: in the series with neuropathic guinea-pigs [1] (setting [4]), the anti-hyperalgesic activity entry was “observed” and the “apparent maximal reversal of hyperalgesia” value stood at 55%. Also, the anti-hyperalgesic activity entry with neuropathic guinea-pigs [1] (lower doses (below 100 mg/kg)) is recorded as “no significant effect”. The side-effects entry with neuropathic guinea-pigs [2] (at doses that reverse mechanical hyperalgesia) was “marked side-effects, principally ataxia and catalepsy”.

These data come from patent US20090054404A1, “USE OF R-10-HYDROXY-10,11-DIHYDRO-CARBAMAZEPINE IN NEUROPATHIC PAIN” (priority 2003, published 2009).
